Measurements published in the NIST ThermoML archive (doi:10.1021/je8004134).
“And” between values parts separate entries of the source, which are not always exact repeats. Identical values can stand only once. ± gives the expanded uncertainty stated by the source.

What was measured:
[1] = 298.15 K, 101 kPa, Liquid; for speed of sound: Sing-around technique in a fixed-path interferometer; for mass density: Vibrating tube method
[2] = an = ratio of the nth substance listed, in mol/kg; conditions: 298.15 K, 101 kPa, Liquid; for speed of sound: Sing-around technique in a fixed-path interferometer; for mass density: Vibrating tube method

C[S+](C)[O-] [dimethyl sulfoxide]
[1]
Conditions | mass density | speed of sound [m/s]
– | 1095.19 ± 0.37 kg/m3 and 1095.2 ± 0.38 kg/m3 and 1095.19 ± 0.33 kg/m3 | 1484.1 ± 1.2

[Cl][Mn][Cl] [manganese chloride] + C[S+](C)[O-]
[2]
Conditions | mass density [kg/m3] | speed of sound [m/s]
a1 = 0.04414 | 1100.11 ± 0.33 | 1486.7 ± 1.2
a1 = 0.0572 | 1101.48 ± 0.33 | 1487.5 ± 1.2
a1 = 0.06981 | 1102.79 ± 0.33 | 1488.2 ± 1.2
a1 = 0.08942 | 1104.86 ± 0.33 | 1489.2 ± 1.2
a1 = 0.1135 | 1107.39 ± 0.33 | 1490.3 ± 1.2
a1 = 0.1386 | 1110.03 ± 0.33 | 1491.4 ± 1.2
a1 = 0.1616 | 1112.45 ± 0.33 | 1492.1 ± 1.2
a1 = 0.19 | 1115.49 ± 0.33 | 1493.2 ± 1.2
a1 = 0.213 | 1117.93 ± 0.33 | 1494.1 ± 1.2

[Ni+2].[O-][Cl+3]([O-])([O-])[O-].[O-][Cl+3]([O-])([O-])[O-] [nickel perchlorate] + CC(=O)N(C)C
[2]
Conditions | mass density [kg/m3] | speed of sound [m/s]
a1 = 0.03452 | 943.693 ± 0.32 | 1460.5 ± 1.2
a1 = 0.06515 | 950.677 ± 0.32 | 1464.3 ± 1.2
a1 = 0.096 | 957.709 ± 0.32 | 1468.2 ± 1.2
a1 = 0.1279 | 964.983 ± 0.32 | 1472.3 ± 1.2
a1 = 0.1604 | 972.395 ± 0.31 | 1476.5 ± 1.2
a1 = 0.1898 | 979.089 ± 0.31 | 1480.4 ± 1.2
a1 = 0.2198 | 985.93 ± 0.31 | 1484.6 ± 1.2
a1 = 0.2504 | 992.904 ± 0.31 | 1489 ± 1.2

C[S+](C)[O-] [dimethyl sulfoxide] + [Mn+2].[O-][Cl+3]([O-])([O-])[O-].[O-][Cl+3]([O-])([O-])[O-]
[2], a2 = 0
Conditions | mass density [kg/m3] | speed of sound [m/s]
– | 1095.19 ± 0.37 | 1484.1 ± 1.2

C[S+](C)[O-] [dimethyl sulfoxide] + [Cl][Cu][Cl]
[2], a2 = 0
Conditions | mass density [kg/m3] | speed of sound [m/s]
– | 1095.2 ± 0.33 | 1484.1 ± 1.2

[Cl][Co][Cl] [cobalt chloride] + C[S+](C)[O-]
[2]
Conditions | mass density [kg/m3] | speed of sound [m/s]
a1 = 0.04252 | 1099.76 ± 0.33 | 1485.1 ± 1.2
a1 = 0.06132 | 1101.77 ± 0.33 | 1485.6 ± 1.2
a1 = 0.08074 | 1103.85 ± 0.33 | 1486.2 ± 1.2
a1 = 0.1018 | 1106.1 ± 0.33 | 1486.7 ± 1.2
a1 = 0.122 | 1108.29 ± 0.33 | 1487.4 ± 1.2
a1 = 0.1423 | 1110.49 ± 0.33 | 1488.2 ± 1.2
a1 = 0.1621 | 1112.63 ± 0.33 | 1488.8 ± 1.2
a1 = 0.1818 | 1114.77 ± 0.33 | 1489.5 ± 1.2
a1 = 0.202 | 1116.97 ± 0.33 | 1490 ± 1.2

CC(=O)N(C)C [N,N-dimethylethanamide] + [Ni+2].[O-][Cl+3]([O-])([O-])[O-].[O-][Cl+3]([O-])([O-])[O-]
[2], a2 = 0
Conditions | mass density [kg/m3] | speed of sound [m/s]
– | 936.168 ± 0.32 | 1455.4 ± 1.2

CC(=O)N(C)C [N,N-dimethylethanamide]
[1]
Conditions | mass density | speed of sound [m/s]
– | 936.22 ± 0.25 kg/m3 [middle of 9 runs] | 1455.4 ± 1.2

[Cl-].[Cl-].[Zn+2] [zinc chloride] + C[S+](C)[O-]
[2]
Conditions | mass density [kg/m3] | speed of sound [m/s]
a1 = 0.05319 | 1100.61 ± 0.32 | 1484.1 ± 1.2
a1 = 0.0712 | 1102.49 ± 0.32 | 1484.2 ± 1.2
a1 = 0.0892 | 1104.34 ± 0.33 | 1484.5 ± 1.2
a1 = 0.107 | 1106.22 ± 0.33 | 1484.8 ± 1.2
a1 = 0.1251 | 1108.12 ± 0.33 | 1485.2 ± 1.2
a1 = 0.1517 | 1110.9 ± 0.33 | 1485.9 ± 1.2
a1 = 0.1776 | 1113.65 ± 0.33 | 1486.6 ± 1.2

C[S+](C)[O-] [dimethyl sulfoxide] + [Ni+2].[O-][Cl+3]([O-])([O-])[O-].[O-][Cl+3]([O-])([O-])[O-]
[2], a2 = 0
Conditions | mass density [kg/m3] | speed of sound [m/s]
– | 1095.19 ± 0.37 | 1484.1 ± 1.2

C[S+](C)[O-] [dimethyl sulfoxide] + [Cl][Ni][Cl]
[2], a2 = 0
Conditions | mass density [kg/m3] | speed of sound [m/s]
– | 1095.19 ± 0.34 | 1484.1 ± 1.2
